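Interpolation was linear, between the two tested concentrations surrounding the appropriate level; five concentrations were tested over 48 hours in 96-well plates. GI50 = concentration required for 50% inhibition of growth.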 Calls of active or inactive are those of the source. Rule as the data show it: active = GI50 up to about 1.1 µM and inactive = higher.
What was measured:
Experiment in all cases: NCI tumour cell line growth inhibition, 48 h
786-0 = system: 786-0
A498 = system: A498
A549 = system: A549
ACHN = system: ACHN
BT-549 = system: BT-549
CAKI-1 = system: CAKI-1
CCRF-CEM = system: CCRF-CEM
COLO 205 = system: COLO 205
DU-145 = system: DU-145
EKVX = system: EKVX
HCC 2998 = system: HCC 2998
HCT-116 = system: HCT-116
HCT-15 = system: HCT-15
HL-60 = system: HL-60
HOP-62 = system: HOP-62
HOP-92 = system: HOP-92
HT-29 = system: HT-29
Hs-578T = system: Hs-578T
IGROV-1 = system: IGROV-1
K562 = system: K562
KM12 = system: KM12
LOX IMVI = system: LOX IMVI
M14 = system: M14
MCF7 = system: MCF7
MDA-MB-231 = system: MDA-MB-231
MDA-MB-435 = system: MDA-MB-435
MDA-N = system: MDA-N
MOLT-4 = system: MOLT-4
Malme-3M = system: Malme-3M
NCI-H226 = system: NCI-H226
NCI-H23 = system: NCI-H23
NCI-H460 = system: NCI-H460
NCI-H522 = system: NCI-H522
NCI/ADR-RES = system: NCI/ADR-RES
OVCAR-3 = system: OVCAR-3
OVCAR-4 = system: OVCAR-4
OVCAR-5 = system: OVCAR-5
OVCAR-8 = system: OVCAR-8
PC-3 = system: PC-3
RPMI-8226 = system: RPMI-8226
RXF 393 = system: RXF 393
SF-268 = system: SF-268
SF-295 = system: SF-295
SF-539 = system: SF-539
SK-MEL-28 = system: SK-MEL-28
SK-MEL-2 = system: SK-MEL-2
SK-MEL-5 = system: SK-MEL-5
SK-OV-3 = system: SK-OV-3
SN12C = system: SN12C
SNB-19 = system: SNB-19
SNB-75 = system: SNB-75
SR = system: SR
SW-620 = system: SW-620
T47D = system: T47D
TK-10 = system: TK-10
U-251 = system: U-251
UACC-257 = system: UACC-257
UACC-62 = system: UACC-62

Structure (SMILES): O=C1Sc2cc3ccccc3cc2C(=O)Sc2ccc(Br)cc21
- GI50 (786-0): 2.07 µM (inactive)
- GI50 (A498): 19 µM (inactive)
- GI50 (A549): 8.89 µM (inactive)
- GI50 (ACHN): 1.66 µM (inactive)
- GI50 (BT-549): 3.29 µM (inactive)
- GI50 (CAKI-1): 4.73 µM (inactive)
- GI50 (CCRF-CEM): 1.12 µM (active)
- GI50 (COLO 205): 12.8 µM (inactive)
- GI50 (DU-145): 4.84 µM (inactive)
- GI50 (EKVX): 14.3 µM (inactive)
- GI50 (HCC 2998): 4.57 µM (inactive)
- GI50 (HCT-116): 5.45 µM (inactive)
- GI50 (HCT-15): 2.43 µM
- GI50 (HL-60): 3.9 µM (inactive)
- GI50 (HOP-62): 6.21 µM (inactive)
- GI50 (HOP-92): 7.29 µM (inactive)
- GI50 (HT-29): 3.41 µM (inactive)
- GI50 (Hs-578T): 5.09 µM (inactive)
- GI50 (IGROV-1): 3.78 µM (inactive)
- GI50 (K562): 4.17 µM (inactive)
- GI50 (KM12): 7.16 µM (inactive)
- GI50 (LOX IMVI): 1.76 µM (inactive)
- GI50 (M14): 3.54 µM (inactive)
- GI50 (MCF7): 4.46 µM (inactive)
- GI50 (MDA-MB-231): 4.09 µM (inactive)
- GI50 (MDA-MB-435): 3.48 µM (inactive)
- GI50 (MDA-N): 4.51 µM (inactive)
- GI50 (MOLT-4): 3.55 µM (inactive)
- GI50 (Malme-3M): 11.9 µM (inactive)
- GI50 (NCI-H226): 14.9 µM (inactive)
- GI50 (NCI-H23): 8.47 µM (inactive)
- GI50 (NCI-H460): 7.26 µM (inactive)
- GI50 (NCI-H522): 1.82 µM (inactive)
- GI50 (NCI/ADR-RES): 3.67 µM (inactive)
- GI50 (OVCAR-3): 1.79 µM (inactive)
- GI50 (OVCAR-4): 14.6 µM (inactive)
- GI50 (OVCAR-5): 11.8 µM (inactive)
- GI50 (OVCAR-8): 2.51 µM (inactive)
- GI50 (PC-3): 3.43 µM (inactive)
- GI50 (RPMI-8226): 1.65 µM (inactive)
- GI50 (RXF 393): 2.48 µM (inactive)
- GI50 (SF-268): 6.08 µM (inactive)
- GI50 (SF-295): 13.1 µM (inactive)
- GI50 (SF-539): 7.93 µM (inactive)
- GI50 (SK-MEL-28): 3.13 µM (inactive)
- GI50 (SK-MEL-2): 4.56 µM (inactive)
- GI50 (SK-MEL-5): 8.3 µM (inactive)
- GI50 (SK-OV-3): 15.5 µM (inactive)
- GI50 (SN12C): 3.93 µM (inactive)
- GI50 (SNB-19): 15.2 µM (inactive)
- GI50 (SNB-75): 4.84 µM (inactive)
- GI50 (SR): 2.45 µM (inactive)
- GI50 (SW-620): 3.07 µM (inactive)
- GI50 (T47D): 3.33 µM (inactive)
- GI50 (TK-10): 5.33 µM (inactive)
- GI50 (U-251): 2.06 µM (inactive)
- GI50 (UACC-257): 5.81 µM (inactive)
- GI50 (UACC-62): 4.93 µM (inactive)
